The values that follow are results of earlier work, collected in patent US20110039930A1 (Emisphere Technologies, Inc., priority 2009, published 2011).

The conditions of the data set: bleeding, ulceration, perforation of the stomach or intestines.

SMILES strings stand for the structures.

Consider `COc1ccc2cc(C(C)C(=O)O)ccc2c1` (stereo not shown) [Naproxen, 2-(6-methoxynaphthalen-2-yl)propanoic acid], for which the gastrointestinal adverse events entry was “increased risk of serious gastrointestinal adverse events”.
